We go through 13 molecules from PMC7912796, “Design, Synthesis, Anticancer Activity, and Solid Lipid Nanoparticle Formulation of Indole- and Benzimidazole-Based Compounds as Pro-Apoptotic Agents Targeting Bcl-2 Protein” (Pharmaceuticals, 2021).

The subject of series [1] is MDA-MB-231/breast cancer cells. Put plainly: MTT-cell proliferation assay. Type of series: cell-based, human. Conditions: for IC50: 48 h drug exposure, mean of three experiments ± SEM. The source says:
(§1) The potential anti-cancer activity of all fourteen final synthesized compounds was investigated through MTT cytotoxic assay against two different human solid cancerous cell lines; A549/lung and MDA-MB-231/breast adenocarcinoma. The adopted cell-proliferation assay assessed % cell viability in relation to the reducing activity of cellular NADPH-dependent cellular oxidoreductases on tetrazolium dye, MTT [2,5-diphenyl-3-(4,5-dimethylthiazol-2-yl)tetrazolium bromide salt], for furnishing an easily quantified insoluble chromogenic formazan. For each drug concentration, 0.1, 1, 10, and 100 μM, the % cell-viability was estimated relative to negative control following a complete 48 h of drug treatment. Both 5-fluorouracil (5-FU) and doxorubicin (DOX) were set as positive index comparators. Moreover, the safety profile of the synthesized compounds was further investigated by examining their in-vitro cytotoxicity on non-cancerous cell line; MDCK/kidney cells.
(§2) Evaluating the cytotoxicity of tested compounds on two cancer cell lines (A549/lung and MDA-MB-231/breast adenocarcinoma) and non-cancerous (MDCK/kidney cells) was performed while adopting the formerly described method with small alterations. Cancer cell lines were propagated within Dulbecco’s Modified Eagle Medium-High Glucose (Cat.#: P0103; DMEM_High Glucose with Na.Pyruvate and stable Glutamine, Biowest^TM, Nuaillé, France), while MDA-MB-231 cells were propagated within RPMI-1640 L-Glutamine medium (Cat.#:12-604F; Lonza-Verviers SPRL^TM, Verviers, Belgium). The culturing media were supplemented via 1% antibiotic-antimycotic 100X (Cat.#: L0010; Biowest^TM, Nuaillé, France) and 10% fetal bovine serum (FBS) (Cat.#: EU-000-H; Seralab^TM, West Sussex, UK). Cells were seeded as triplicates within 96-well plate, at 1 × 10^4 cells per well density, after being counted and viability checked using the trypan blue staining solution (Cat.# ab233465; Abcam^TM, Cambridge, MA, USA). Seeded cells were permitted to adhere for 24 h under 5% CO2 and at 37 °C incubating conditions. The assigned compounds were dissolved in 500 µL DMSO affording the stock solution (100 mM) being ready for more diluting within the whole medium to obtain the compound’s final concentrations; 0.1, 1, 10, 100 µM for cell treatments. […] Following 24 h compound-cell treatment, the medium was substituted by fresh one and cells were permitted to develop for 48 h. At four hours prior the end of incubation, 10 μL MTT Sigma-Aldrich^TM (5 mg/mL in PBS 1X without magnesium and calcium; Cat.# 17-516F, Lonza-Verviers^TM, Basel, Switzerland) were added to all wells. Following the complete 48 h incubation, 100 μL DMSO was all added to all wells where they were subsequently centrifuged at 4000 rpm for 5 min allowing the formazan crystals of formazan to precipitate. Color was established and intensities were recorded at 490 nm using Synergy-Neo2® Hybrid MultiMode Plate Reader (BioTek^TM, Winooski, VT, USA), while subtracting the multi-well plates background absorbance at 690 nm. Percentage cell viability was estimated using the subsequent formula: % cell-viability = (average absorbance of treated wells/average absorbance of controls) × 100.

Series [2] deals with A549/lung adenocarcinoma cells. Put plainly: MTT-cell proliferation assay. Conditions: for IC50: Homo sapiens, A549, 48 h drug exposure, mean of three experiments ± SEM. It is filed as cell-based, human.
Source text: as §1, §2

The test system of the next series is A549/lung adenocarcinoma. Put plainly: Morphological assessment. It is filed as cell-based, human. As to conditions: 0.1-100 µM (5-FU 100 µM), 48 h, phase-contrast microscope.
The subject of series [3] is MDCK/kidney non-cancerous cells. Put plainly: MTT-cell proliferation assay on non-cancerous cell line. It is filed as cell-based. As to conditions: Canis lupus familiaris, MDCK, 48 h, 48 h drug exposure, mean ± SEM.
Source text: as §1, §2

With `Cc1cccc(NCc2nc3ccccc3[nH]2)c1` [Compound 3a, N-((1H-benzo[d]imidazol-2-yl)methyl)-3-methylaniline], the melting point is 139 to 141 °C. In addition, the IC50 in series [1] (Homo sapiens, MDA-MB-231, 48 h) was found to be 29.7 ± 4.03 µM.

For `Cc1cccc(C)c1NCc1nc2ccccc2[nH]1` [Compound 3b, N-((1H-benzo[d]imidazol-2-yl)methyl)-2,6-dimethylaniline], the melting point lay within 159 to 161 °C. Besides, the “effect on cell proliferation” value in series [2] (0.1-100 µM) is “irregular effects with tendency to increase the cell proliferation”.

In turn, `Brc1cccc(NCc2nc3ccccc3[nH]2)c1` [Compound 3c, N-((1H-benzo[d]imidazol-2-yl)methyl)-3-bromoaniline] came in with a melting point of 139 to 141 °C. Further, in series [1] (100 µM drug concentration), the “effect on cell proliferation” value is “enhanced cell proliferation”.

Consider `Oc1ccc(NCc2nc3ccccc3[nH]2)cc1` [Compound 3d, 4-(((1H-benzo[d]imidazol-2-yl)methyl)amino)phenol], for which the melting point was 139 to 141 °C.

`O=c1[nH]cc(F)c(=O)[nH]1` [Compound 5-FU, 5-fluorouracil, reference compound]: the cell morphology alterations entry in the series with A549/lung adenocarcinoma was “epithelial-mesenchymal transition was observed”.

In the case of `O=C(NN=Cc1ccccc1)c1cc2ccccc2[nH]1` [Compound 7a, N′-benzylidene-1H-indole-2-carbohydrazide], the melting point lay in the range of 111 to 113 °C.

As to `COc1ccc(C=NNC(=O)c2cc3ccccc3[nH]2)cc1` [Compound 7b, N′-(4-methoxybenzylidene)-1H-indole-2-carbohydrazide], the melting point lay in the range of 104 to 106 °C. Further, the IC50 in series [3] came out at 28.9 ± 1.49 µM. Also, the IC50 in series [1] (Homo sapiens, MDA-MB-231, 48 h) was determined as 43.8 ± 1.09 µM.

In the case of `CN(C)c1ccc(C=NNC(=O)c2cc3ccccc3[nH]2)cc1` [Compound 7c, N′-(4-(dimethylamino)benzylidene)-1H-indole-2-carbohydrazide], the melting point fell in the range of 90 to 92 °C.

In turn, `O=C(NN=Cc1cccnc1)c1cc2ccccc2[nH]1` [Compound 7d, N′-(pyridin-3-ylmethylene)-1H-indole-2-carbohydrazide] yielded a melting point of 252 to 254 °C. Further, in series [1] (Homo sapiens, MDA-MB-231, 48 h), the IC50 came out at 17.4 ± 3.23 µM.

Molecule `CCc1ccc(-c2nn(-c3ccccc3)cc2C=NNC(=O)c2cc3ccccc3[nH]2)cc1` [Compound 8a, N′-((3-(4-ethylphenyl)-1-phenyl-1H-pyrazol-4-yl)methylene)-1H-indole-2-carbohydrazide] returned a melting point of 254 to 256 °C. Besides, the IC50 in series [3] was 73.9 ± 2.3 µM. Besides, the IC50 in series [1] (Homo sapiens, MDA-MB-231, 48 h) was determined as 12.7 ± 0.84 µM. Further, the IC50 in series [2] is 23.1 ± 1.45 µM.

Take `CC(C)c1ccc(-c2nn(-c3ccccc3)cc2C=NNC(=O)c2cc3ccccc3[nH]2)cc1` [Compound 8c, N′-((3-(4-isopropylphenyl)-1-phenyl-1H-pyrazol-4-yl)methylene)-1H-indole-2-carbohydrazide]: the melting point fell in the range of 219 to 221 °C. In addition, the 50% inhibitory concentration (IC50) in series [3] stood at 87.3 ± 3 µM. Also, in series [1] (Homo sapiens, MDA-MB-231, 48 h), the half-maximal inhibitory concentration (IC50) stood at 12.8 ± 3.5 µM. The IC50 in series [2] came out at 11.6 ± 2.57 µM.

`CC(C)Cc1ccc(-c2nn(-c3ccccc3)cc2C=NNC(=O)c2cc3ccccc3[nH]2)cc1` [Compound 8d, N′-((3-(4-isobutylphenyl)-1-phenyl-1H-pyrazol-4-yl)methylene)-1H-indole-2-carbohydrazide] came in with a melting point of 229 to 231 °C. For the same molecule, the IC50 in series [1] came out at 31.5 ± 4.66 µM. Moreover, the 50% inhibitory concentration (IC50) in series [1] (Homo sapiens, MDA-MB-231, 48 h) amounted to 21.6 µM.

`Cc1nn(-c2ccc([N+](=O)[O-])c([N+](=O)[O-])c2)c(Cl)c1C=NNC(=O)c1cc2ccccc2[nH]1` [Compound 8f, N′-((5-chloro-1-(3,4-dinitrophenyl)-3-methyl-1H-pyrazol-4-yl)methylene)-1H-indole-2-carbohydrazide] had a melting point of 204 to 206 °C. The IC50 in series [1] is 21.6 ± 0.28 µM. For the same molecule, in series [1] (Homo sapiens, MDA-MB-231, 48 h), the IC50 was determined as 31.5 µM.
